The NIST ThermoML archive (doi:10.1016/j.jct.2015.08.014)
Numbers after ± are expanded uncertainties.

Assay: xn = mol fraction of the nth substance listed
Conditions: 293.15 K, 100 kPa, Liquid, Alternating current cell with electrodes

CCCC[N+]1(C)CCCC1.N#CN=C=[N-] [1-butyl-1-methylpyrrolidinium dicyanamide] + O=C1CCCO1
Conditions	electrical conductivity [S/m]
Frequency=0.0015 MHz, x1 = 0.3029	2.29 ± 0.023
Frequency=0.0015 MHz, x1 = 0.3845	2.112 ± 0.021
Frequency=0.0015 MHz, x1 = 0.4985	1.84 ± 0.019
Frequency=0.0015 MHz, x1 = 0.6954	1.46 ± 0.015
Frequency=0.0015 MHz, x1 = 0.9013	1.19 ± 0.012
Frequency=0.0015 MHz, x1 = 1	1.123 ± 0.011
Frequency=0.002 MHz, x1 = 0.0463	1.37 ± 0.024
Frequency=0.002 MHz, x1 = 0.0987	2.04 ± 0.025
Frequency=0.002 MHz, x1 = 0.1449	2.31 ± 0.024
Frequency=0.002 MHz, x1 = 0.1859	2.443 ± 0.024
Frequency=0.002 MHz, x1 = 0.2493	2.37 ± 0.024
Frequency=0.002 MHz, x1 = 0.3029	2.29 ± 0.023
Frequency=0.002 MHz, x1 = 0.3845	2.113 ± 0.021
Frequency=0.002 MHz, x1 = 0.4985	1.84 ± 0.019
Frequency=0.002 MHz, x1 = 0.6954	1.46 ± 0.015
Frequency=0.002 MHz, x1 = 0.9013	1.19 ± 0.012
Frequency=0.002 MHz, x1 = 1	1.123 ± 0.011
Frequency=0.0025 MHz, x1 = 0.0463	1.37 ± 0.024
Frequency=0.0025 MHz, x1 = 0.0987	2.04 ± 0.025
Frequency=0.0025 MHz, x1 = 0.1449	2.31 ± 0.024
Frequency=0.0025 MHz, x1 = 0.1859	2.445 ± 0.024
Frequency=0.0025 MHz, x1 = 0.2493	2.37 ± 0.024
Frequency=0.0025 MHz, x1 = 0.3029	2.29 ± 0.023
Frequency=0.0025 MHz, x1 = 0.3845	2.114 ± 0.021
Frequency=0.0025 MHz, x1 = 0.4985	1.84 ± 0.019
Frequency=0.0025 MHz, x1 = 0.6954	1.46 ± 0.015
Frequency=0.0025 MHz, x1 = 0.9013	1.19 ± 0.012
Frequency=0.0025 MHz, x1 = 1	1.123 ± 0.011
Frequency=0.003 MHz, x1 = 0.0463	1.37 ± 0.024
Frequency=0.003 MHz, x1 = 0.0987	2.05 ± 0.025
Frequency=0.003 MHz, x1 = 0.1449	2.31 ± 0.024
Frequency=0.003 MHz, x1 = 0.1859	2.45 ± 0.025
Frequency=0.003 MHz, x1 = 0.2493	2.37 ± 0.024
Frequency=0.003 MHz, x1 = 0.3029	2.29 ± 0.023
Frequency=0.003 MHz, x1 = 0.3845	2.114 ± 0.021
Frequency=0.003 MHz, x1 = 0.4985	1.84 ± 0.019
Frequency=0.003 MHz, x1 = 0.6954	1.46 ± 0.015
Frequency=0.003 MHz, x1 = 0.9013	1.19 ± 0.012
Frequency=0.003 MHz, x1 = 1	1.123 ± 0.011
Frequency=0.00347222 MHz, x1 = 0.0463	1.37 ± 0.024
Frequency=0.00347222 MHz, x1 = 0.0987	2.05 ± 0.025
Frequency=0.00347222 MHz, x1 = 0.1449	2.31 ± 0.024
Frequency=0.00347222 MHz, x1 = 0.1859	2.45 ± 0.025
Frequency=0.00347222 MHz, x1 = 0.2493	2.37 ± 0.024
Frequency=0.00347222 MHz, x1 = 0.3029	2.29 ± 0.023
Frequency=0.00347222 MHz, x1 = 0.3845	2.115 ± 0.021
Frequency=0.00347222 MHz, x1 = 0.4985	1.84 ± 0.019
Frequency=0.00347222 MHz, x1 = 0.6954	1.46 ± 0.015
Frequency=0.00347222 MHz, x1 = 0.9013	1.19 ± 0.012
Frequency=0.00347222 MHz, x1 = 1	1.123 ± 0.011
Frequency=0.004 MHz, x1 = 0.0463	1.37 ± 0.024
Frequency=0.004 MHz, x1 = 0.0987	2.05 ± 0.025
Frequency=0.004 MHz, x1 = 0.1449	2.31 ± 0.024
Frequency=0.004 MHz, x1 = 0.1859	2.45 ± 0.025
Frequency=0.004 MHz, x1 = 0.2493	2.37 ± 0.024
Frequency=0.004 MHz, x1 = 0.3029	2.29 ± 0.023
Frequency=0.004 MHz, x1 = 0.3845	2.115 ± 0.021
Frequency=0.004 MHz, x1 = 0.4985	1.84 ± 0.019
Frequency=0.004 MHz, x1 = 0.6954	1.46 ± 0.015
Frequency=0.004 MHz, x1 = 0.9013	1.19 ± 0.012
Frequency=0.004 MHz, x1 = 1	1.123 ± 0.011
Frequency=0.00446429 MHz, x1 = 0.0463	1.37 ± 0.024
Frequency=0.00446429 MHz, x1 = 0.0987	2.05 ± 0.025
Frequency=0.00446429 MHz, x1 = 0.1449	2.31 ± 0.024
Frequency=0.00446429 MHz, x1 = 0.1859	2.45 ± 0.025
Frequency=0.00446429 MHz, x1 = 0.2493	2.37 ± 0.024
Frequency=0.00446429 MHz, x1 = 0.3029	2.29 ± 0.023
Frequency=0.00446429 MHz, x1 = 0.3845	2.115 ± 0.021
Frequency=0.00446429 MHz, x1 = 0.4985	1.84 ± 0.019
Frequency=0.00446429 MHz, x1 = 0.6954	1.46 ± 0.015
Frequency=0.00446429 MHz, x1 = 0.9013	1.19 ± 0.012
Frequency=0.00446429 MHz, x1 = 1	1.123 ± 0.011
Frequency=0.005 MHz, x1 = 0.0463	1.37 ± 0.024
Frequency=0.005 MHz, x1 = 0.0987	2.05 ± 0.025
Frequency=0.005 MHz, x1 = 0.1449	2.31 ± 0.024
Frequency=0.005 MHz, x1 = 0.1859	2.45 ± 0.025
Frequency=0.005 MHz, x1 = 0.2493	2.37 ± 0.024
Frequency=0.005 MHz, x1 = 0.3029	2.29 ± 0.023
Frequency=0.005 MHz, x1 = 0.3845	2.115 ± 0.021
Frequency=0.005 MHz, x1 = 0.4985	1.84 ± 0.019
Frequency=0.005 MHz, x1 = 0.6954	1.46 ± 0.015
Frequency=0.005 MHz, x1 = 0.9013	1.19 ± 0.012
Frequency=0.005 MHz, x1 = 1	1.123 ± 0.011
Frequency=0.005454 MHz, x1 = 0.0463	1.37 ± 0.024
Frequency=0.005454 MHz, x1 = 0.0987	2.05 ± 0.025
Frequency=0.005454 MHz, x1 = 0.1449	2.31 ± 0.024
Frequency=0.005454 MHz, x1 = 0.1859	2.45 ± 0.025
Frequency=0.005454 MHz, x1 = 0.2493	2.37 ± 0.024
Frequency=0.005454 MHz, x1 = 0.3029	2.29 ± 0.023
Frequency=0.005454 MHz, x1 = 0.3845	2.116 ± 0.021
Frequency=0.005454 MHz, x1 = 0.4985	1.84 ± 0.019
Frequency=0.005454 MHz, x1 = 0.6954	1.46 ± 0.015
Frequency=0.005454 MHz, x1 = 0.9013	1.19 ± 0.012
Frequency=0.005454 MHz, x1 = 1	1.123 ± 0.011
Frequency=0.006 MHz, x1 = 0.0463	1.37 ± 0.024
Frequency=0.006 MHz, x1 = 0.0987	2.05 ± 0.025
Frequency=0.006 MHz, x1 = 0.1449	2.31 ± 0.024
Frequency=0.006 MHz, x1 = 0.1859	2.45 ± 0.025
Frequency=0.006 MHz, x1 = 0.2493	2.37 ± 0.024
Frequency=0.006 MHz, x1 = 0.3029	2.29 ± 0.023
Frequency=0.006 MHz, x1 = 0.3845	2.116 ± 0.021
Frequency=0.006 MHz, x1 = 0.4985	1.84 ± 0.019
Frequency=0.006 MHz, x1 = 0.6954	1.46 ± 0.015
Frequency=0.006 MHz, x1 = 0.9013	1.19 ± 0.012
Frequency=0.006 MHz, x1 = 1	1.123 ± 0.011
Frequency=0.00652174 MHz, x1 = 0.0463	1.37 ± 0.024
Frequency=0.00652174 MHz, x1 = 0.0987	2.05 ± 0.025
